Experimental findings from patent US8399502B2, “Analogs of indole-3-carbinol and their use as agents against infection” (priority 2008, dated 2013) are described below.

Holding throughout (type): cell-based
Assay [1] concerns methicillin-resistant Staphylococcus aureus (MRSA). The experiment in a line: microbe, parasite or virus in culture. Particulars: read-out: MIC MRSA.
Assay [2] relates to penicillin-resistant S. pneumoniae (PRSP). The experiment in a line: microbe, parasite or virus in culture. Particulars: Streptococcus pneumoniae, read-out: MIC PRSP.
The test system of assay [3] is methicillin-susceptible Staphylococcus aureus (MSSA). Description: microbe, parasite or virus in culture. Particulars: read-out: MIC MSSA.
Assay [4] has as its system penicillin-susceptible S. pneumoniae (PSSP). The experiment in a line: microbe, parasite or virus in culture. Particulars: Streptococcus pneumoniae, read-out: MIC PSSP.
For assay [5], the system named is Bacillus anthracis (BA; Gram-positive). Description: microbe, parasite or virus in culture. Particulars: read-out: MIC BA.
Assay [6] relates to Francisella tularensis (FT; Gram-negative). The experiment in a line: microbe, parasite or virus in culture. Particulars: read-out: MIC FT.
For assay [7], the system named is Burkholderia mallei (BM; Gram-negative). The experiment in a line: microbe, parasite or virus in culture. Particulars: read-out: MIC BM.
The test system of assay [8] is Burkholderia pseudomallei (BP; Gram-negative). The experiment in a line: microbe, parasite or virus in culture. Particulars: read-out: MIC BP.
Assay [9] has as its system Yersinia pestis (YP; Gram-negative). Description: microbe, parasite or virus in culture. Particulars: read-out: MIC YP.
Assay [10] relates to Brucella abortus (BAB; Gram-negative). The experiment in a line: microbe, parasite or virus in culture. Particulars: read-out: MIC BAB.
For assay [11], the system named is Vancomycin-resistant Enterococcus faecalis (VRE). Description: MIC determination. Particulars: Table 3.
Assay [12] has as its system Shigella dysenteriae (SD). The experiment in a line: MIC determination. Particulars: Table 3.
Assay [13] concerns Listeria monocytogenes (LM). The experiment in a line: MIC determination. Particulars: Table 3.
In assay [14] the test system is Acinetobacter baumannii (AB). The experiment in a line: MIC determination. Particulars: Table 3.
Assay [15] has as its system Vancomycin-Sensitive Enterococcus faecalis (VSE). The experiment in a line: MIC determination. Particulars: Table 3.
Assay [16] relates to Mycobacteruim tuberculosis H37Rv (H37Rv). The experiment in a line: microbe, parasite or virus in culture. Particulars: Mycobacterium tuberculosis, read-out: MIC against Tubercle bacillus.

≈ marks a conversion by molar mass, not a printed value. Where only a bound is given, the exact number is not on record here.

Turning to `c1ccc2c(Cc3c[nH]c4ccccc34)c[nH]c2c1`, the MIC in assay [1] is more than 64 µg/mL; in assay [2], 8 µg/mL (≈ 32.5 µM); in [3], more than 64 µg/mL; in assay [4], more than 64 µg/mL; in assay [5] it was more than 64 µg/mL; in assay [6] it was 8 µg/mL (≈ 32.5 µM).

Take `C=C(c1c[nH]c2ccccc12)c1c[nH]c2ccccc12`: the MIC in [1] stood at 8 µg/mL (≈ 31 µM); in [2], 2 µg/mL (≈ 7.74 µM); in assay [3] it was 8 µg/mL (≈ 31 µM); in assay [4], 4 µg/mL (≈ 15.5 µM); in [5], 8 µg/mL (≈ 31 µM); in assay [6], 16 µg/mL (≈ 61.9 µM).

For the molecule `c1ccc2[nH]c(Cc3c[nH]c4ccccc34)cc2c1`, the MIC in assay [1] was 32 µg/mL (≈ 130 µM); in assay [2], 1 µg/mL (≈ 4.06 µM); in assay [3], 32 µg/mL (≈ 130 µM); in assay [4], 8 µg/mL (≈ 32.5 µM); in [5], 16 µg/mL (≈ 65 µM); in assay [6], 4 µg/mL (≈ 16.2 µM).

With `c1ccc2[nH]c(Cc3cc4ccccc4[nH]3)cc2c1`, the MIC in [1] is 32 µg/mL (≈ 130 µM); in assay [2], 2 µg/mL (≈ 8.12 µM); in [3], 16 µg/mL (≈ 65 µM); in [4], 1 µg/mL (≈ 4.06 µM); in assay [5], 16 µg/mL (≈ 65 µM); in assay [6], 4 µg/mL (≈ 16.2 µM).

For the molecule `CCOC(=O)c1ccc2[nH]cc(Cc3c(C)[nH]c4ccccc34)c2c1`, the MIC in assay [1] was more than 64 µg/mL; in assay [2], 8 µg/mL (≈ 24.1 µM); in [3] it was more than 64 µg/mL; in assay [4], 2 µg/mL (≈ 6.02 µM); in [5] it was 8 µg/mL (≈ 24.1 µM); in [6], 4 µg/mL (≈ 12 µM).

`CCOC(=O)Oc1c2[nH]c3ccccc3c2cc2c1[nH]c1ccccc12`: the MIC was 4 µg/mL (≈ 11.6 µM) in assay [1]; 2 µg/mL (≈ 5.81 µM) in [2]; 4 µg/mL (≈ 11.6 µM) in [3]; 4 µg/mL (≈ 11.6 µM) in assay [4]; 4 µg/mL (≈ 11.6 µM) in [5]; not above 0.5 µg/mL in assay [6].

Take `c1ccc2c(Cc3[nH]c4ccccc4c3Cc3c[nH]c4ccccc34)c[nH]c2c1`: the MIC in assay [1] was 8 µg/mL (≈ 21.3 µM); in assay [2] it was 2 µg/mL (≈ 5.33 µM); in [3], 8 µg/mL (≈ 21.3 µM); in assay [4], 4 µg/mL (≈ 10.7 µM); in [5], 4 µg/mL (≈ 10.7 µM); in assay [6] it was 2 µg/mL (≈ 5.33 µM).

Regarding `Cc1onc(-c2ccccc2)c1C(=O)N[C@@H]1C(=O)N2[C@@H]1SC(C)(C)[C@@H]2C(=O)O` [Oxacillin, oxacillin, reference compound], the MIC in assay [1] is more than 64 µg/mL; in assay [4], 0.1 µg/mL (≈ 0.249 µM); in [5], 0.8 µg/mL (≈ 1.99 µM); in [6], more than 64 µg/mL.

Turning to `N=C(N)NCCCOc1c2[nH]c3ccc(F)cc3c2cc2c1[nH]c1ccc(F)cc12` [drawing 232], the MIC was found to be 2 µg/mL (≈ 4.91 µM) in assay [7]; 4 µg/mL (≈ 9.82 µM) in assay [8]; 8 µg/mL (≈ 19.6 µM) in assay [9]; 0.5 µg/mL (≈ 1.23 µM) in [5]; 1 µg/mL (≈ 2.45 µM) in [6]; 0.25 µg/mL (≈ 0.614 µM) in assay [10].

Consider `Fc1ccc2[nH]c3c(OCCCNC4=NCCN4)c4[nH]c5ccc(F)cc5c4cc3c2c1` [drawing 234], for which the MIC in assay [7] was 8 µg/mL (≈ 18.5 µM); in assay [8], more than 8 µg/mL; in assay [9] it was 8 µg/mL (≈ 18.5 µM); in assay [5], 1 µg/mL (≈ 2.31 µM); in assay [6], 2 µg/mL (≈ 4.61 µM); in [10] it was 2 µg/mL (≈ 4.61 µM).

Regarding `Fc1ccc2[nH]c3c(O[C@@H]4CCNC4)c4[nH]c5ccc(F)cc5c4cc3c2c1` [drawing 253], the MIC was 2 µg/mL (≈ 5.3 µM) in [7]; 4 µg/mL (≈ 10.6 µM) in assay [8]; 1 µg/mL (≈ 2.65 µM) in assay [9]; less than 0.25 µg/mL in assay [5]; not above 0.25 µg/mL in assay [6]; less than 0.25 µg/mL in [10].

`Fc1ccc2[nH]c3c(O[C@H]4CCNC4)c4[nH]c5ccc(F)cc5c4cc3c2c1` [drawing 254]: the MIC in assay [7] is 2 µg/mL (≈ 5.3 µM); in [8], 4 µg/mL (≈ 10.6 µM); in assay [9], 1 µg/mL (≈ 2.65 µM); in assay [5] it was 0.25 µg/mL (≈ 0.662 µM); in assay [6], 0.25 µg/mL (≈ 0.662 µM); in [10], less than 0.25 µg/mL.

In the case of `Cc1c2[nH]c3ccccc3c2cc2c1[nH]c1ccccc12` [drawing 263], the MIC in assay [1] was 4 µg/mL (≈ 14.8 µM); in [2] it was 1 µg/mL (≈ 3.7 µM); in [3], 2 µg/mL (≈ 7.4 µM); in assay [4], 1 µg/mL (≈ 3.7 µM); in assay [5], 1 µg/mL (≈ 3.7 µM); in [6], not above 0.5 µg/mL.

With `CN(C)CCOc1c2[nH]c3ccc(F)cc3c2cc2c1[nH]c1ccc(F)cc12` [drawing 265], the MIC is 2 µg/mL (≈ 5.27 µM) in assay [11]; 8 µg/mL (≈ 21.1 µM) in assay [12]; 2 µg/mL (≈ 5.27 µM) in assay [13]; 4 µg/mL (≈ 10.5 µM) in assay [14]; 1 µg/mL (≈ 2.64 µM) in [15].

Turning to `N=C(N)NCCCOc1c2[nH]c3ccc(Cl)cc3c2cc2c1[nH]c1ccc(Cl)cc12` [drawing 266], the MIC in [11] amounted to 2 µg/mL (≈ 4.54 µM); in assay [12] it was 4 µg/mL (≈ 9.08 µM); in assay [13], 1 µg/mL (≈ 2.27 µM); in [14], 4 µg/mL (≈ 9.08 µM); in [15], 4 µg/mL (≈ 9.08 µM).

On to `OC1CCN(CCCOc2c3[nH]c4ccc(Cl)cc4c3cc3c2[nH]c2ccc(Cl)cc23)CC1` [drawing 267], for which the MIC in [11] was 2 µg/mL (≈ 4.15 µM); in assay [12], 8 µg/mL (≈ 16.6 µM); in assay [13], 1 µg/mL (≈ 2.07 µM); in [14], 4 µg/mL (≈ 8.29 µM); in assay [15] it was 4 µg/mL (≈ 8.29 µM).

On to `N=C(N)NCCCOc1c2[nH]c3ccc(F)cc3c2cc2c1[nH]c1ccc(F)cc12` [drawing 268], for which the MIC was 2 µg/mL (≈ 4.91 µM) in assay [11]; 8 µg/mL (≈ 19.6 µM) in [12]; 4 µg/mL (≈ 9.82 µM) in assay [13]; 8 µg/mL (≈ 19.6 µM) in assay [14]; 8 µg/mL (≈ 19.6 µM) in [15].

`Fc1ccc2[nH]c3c(O[C@@H]4CCNC4)c4[nH]c5ccc(F)cc5c4cc3c2c1` [drawing 269]: the MIC came out at 1 µg/mL (≈ 2.65 µM) in [11]; 4 µg/mL (≈ 10.6 µM) in assay [12]; 2 µg/mL (≈ 5.3 µM) in assay [13]; 4 µg/mL (≈ 10.6 µM) in assay [14]; 2 µg/mL (≈ 5.3 µM) in assay [15].

For the molecule `Fc1ccc2[nH]c3c(OCCCNC4=NCCN4)c4[nH]c5ccc(F)cc5c4cc3c2c1` [drawing 270], the MIC in assay [11] was 1 µg/mL (≈ 2.31 µM); in assay [12], 8 µg/mL (≈ 18.5 µM); in assay [13], 2 µg/mL (≈ 4.61 µM); in [14] it was 4 µg/mL (≈ 9.23 µM); in assay [15], 4 µg/mL (≈ 9.23 µM).

In the case of `COc1c2[nH]c3ccc(F)cc3c2cc2c1[nH]c1ccc(F)cc12` [drawing 271], the MIC in assay [16] is more than 10 µg/mL.

Turning to `CN(C)CCOc1c2[nH]c3ccc(F)cc3c2cc2c1[nH]c1ccc(F)cc12` [drawing 272], the MIC in [16] was 5 µg/mL (≈ 13.2 µM).

For `CN(C)CC#Cc1c2[nH]c3ccc(F)cc3c2cc2c1[nH]c1ccc(F)cc12` [drawing 273], the MIC in assay [16] is 10 µg/mL (≈ 26.8 µM).

Take `N=C(N)NCCCOc1c2[nH]c3ccc(Cl)cc3c2cc2c1[nH]c1ccc(Cl)cc12` [drawing 274]: the MIC in [16] came out at 10 µg/mL (≈ 22.7 µM).

Turning to `OC1CCN(CCCOc2c3[nH]c4ccc(Cl)cc4c3cc3c2[nH]c2ccc(Cl)cc23)CC1` [drawing 275], the MIC in [16] was determined as 10 µg/mL (≈ 20.7 µM).

As for `Fc1ccc2[nH]c3c(OCCCn4cncn4)c4[nH]c5ccc(F)cc5c4cc3c2c1` [drawing 276], in assay [16], the MIC was more than 10 µg/mL.

Turning to `N=C(N)NCCCOc1c2[nH]c3ccc(F)cc3c2cc2c1[nH]c1ccc(F)cc12` [drawing 277], the MIC in assay [16] turned out to be 10 µg/mL (≈ 24.5 µM).

As to `Fc1ccc2[nH]c3c(OCCCNC4=NCCN4)c4[nH]c5ccc(F)cc5c4cc3c2c1` [drawing 278], the MIC in assay [16] worked out at 10 µg/mL (≈ 23.1 µM).

Consider `Fc1ccc2[nH]c3c(O[C@@H]4CCNC4)c4[nH]c5ccc(F)cc5c4cc3c2c1` [drawing 279], for which the MIC in assay [16] was determined as 10 µg/mL (≈ 26.5 µM).

In the case of `Fc1ccc2[nH]c3c(O[C@H]4CCNC4)c4[nH]c5ccc(F)cc5c4cc3c2c1` [drawing 280], the MIC in assay [16] was found to be 5 µg/mL (≈ 13.2 µM).

As to `Cc1c2[nH]c3ccccc3c2cc2c1[nH]c1ccccc12` [drawing 281], the MIC in assay [16] is 10 µg/mL (≈ 37 µM).
